Measurements as given in publication PMC10669052, “Exploring Differences in Pharmacometrics of Rabeprazole between Genders via Population Pharmacokinetic–Pharmacodynamic Modeling” (Biomedicines, 2023).
Converted amounts (≈) assume the structure as drawn. Where two headings read alike, the source gives them in different places.

Tests used:
clinical = details: for AUC / AUC(0-inf) / AUCextrap / Cmax / MRT / Tmax / Vd/F / half-life: human, in vivo, po
Method: Analysis of biochemical parameters was performed on all subjects participating in the clinical trial and the methods are presented in Supplementary Information S1. Information relating to the selection and progress of clinical trial participants is presented in Supplementary Information S2, and information on the clinical trial design and sampling is presented in Supplementary Information S3. The clinical trial protocol was thoroughly reviewed and officially approved (approval number: MB22-002; approved on 15 February 2022) by the Ministry of Food and Drug Safety (Cheongju-si, Republic of Korea). NCA was used to calculate the rabeprazole pharmacokinetic parameters for males and females before a comparison of rabeprazole pharmacokinetics was performed between genders to determine any significant rabeprazole pharmacokinetic parameters in males and females. Pharmacokinetic parameters calculated by NCA were estimated based on plasma concentration values over time after orally administering a 10 mg rabeprazole enteric-coated tablet. Information on the analytical method applied to quantify rabeprazole among plasma samples is briefly presented in Supplementary Information S4, whereas the methods for calculating pharmacokinetic parameters using NCA are presented in Supplementary Information S5. An additional NCA analysis was performed based on the normalized rabeprazole plasma concentration values for body weight, which is one of the major physiological differences between genders that has been frequently applied in past pharmacokinetic comparative studies between genders, and the results were categorized and compared by gender. The significant differences between genders were compared using a two-tailed t test, with significance determined at a p value of 0.05.
43 Supplementary Information 3
45 Clinical trial design and sampling
46 This bioequivalence investigation was performed as randomized, single-dose, open-label,
47 crossover, and two-way studies (with a washout period of 7 days). Prior to the clinical trial,
49 Minneapolis, MN, USA) installed into a vein on the arm or back of the hand, and 6 mL of blank
50 blood was collected. Then, all subjects were orally administered a single 10 mg rabeprazole
51 enteric-coated tablet along with 150 mL of water. Subjects had fasted for more than 10 h before
52 administration. Blood sampling from subjects was performed at a total of 13 specific time
53 points post-dose: Before administration (0 h) and at 1, 2, 2.5, 3, 3.5, 4, 4.5, 5, 5.5, 6, 7, 8, and
54 10 h after oral administration. The sampling method was as follows: To completely remove the
55 heparinized saline solution remaining in the venous catheter during blood collection,
56 approximately 1 mL of blood was collected and discarded each time, and approximately 6 mL
57 of blood was collected and placed in sodium heparinized vacutainer tubes (BD, Franklin Lakes,
58 NJ, USA) with the subject management number and blood collection time written on them.
59 After each blood draw, a saline solution for injection (containing heparin for injection) was
60 administered to prevent the blood remaining in the intravenous catheter from clotting. The
61 collected blood was centrifuged at 3,000 ×g for 10 min in a centrifuge set at 4 °C, and then
62 approximately 1 mL of plasma was taken, transferred to an Eppendorf tube (Eppendorf, […]

[1] = Population pharmacokinetic model (three sequential absorption with Tlag, two-compartment; Phoenix NLME); type: in vivo, human; details: for CL/F: both sexes, human, plasma, oral, 10 mg, read-out: tvCLc/F (typical value, central compartment clearance) (converted)
Method: Construction and analysis of the population pharmacokinetic model for rabeprazole were performed using a non-linear mixed effects model approach using Phoenix NLME (version 8.4, Pharsight, Certara Inc., Princeton, NJ, USA) software. An estimation of population pharmacokinetic parameters for rabeprazole was performed using the first-order conditional estimates method with extended least squares estimation (with ŋ–ε interaction). The development of the rabeprazole population pharmacokinetic model was largely performed in two steps. First, a basic structural model was established that could explain the plasma concentration of rabeprazole following its oral administration. This included a number of basic compartments, whether to reflect the lag time (Tlag) associated with rabeprazole oral absorption, the mechanistic structuring involved in the absorption process (including multiple absorption), or the selection of relevant error models to account for residual and IIV. Thus, in establishing the model, the values obtained using the NCA calculations were reflected as the initial parameter values, which accelerated the convergence of the final parameters and enabled its effective modeling. Second, a search was performed for model-applicable effective covariates relevant to the inter-individual rabeprazole pharmacokinetic variation modeling. This was achieved by applying stepwise candidate covariates to the IIVs of the pharmacokinetic parameters reflected in the model. Gender and individual physiological and biochemical factors were considered potential effective covariates and treated as categorical and continuous data, respectively, before application priorities were determined based on the results of the previous correlation screening. Appropriate models for each step were selected and performed using various statistical significance tools derived from Phoenix NLME, including Akaike’s information criterion (AIC), twice the negative log-likelihood (−2LL), and goodness-of-fit (GOF) plots, whereas the significance of the total number of parameters applied to the model (increased or decreased degrees of freedom) was also considered. Significance was determined using a Chi-square distribution p value of 0.05 (for forward selection) and 0.01 (for backward elimination) at −2LL and objective function value (OFV). The adequacy of the rabeprazole population pharmacokinetic model was verified using GOF (including distribution of residuals), visual predictive check (VPC), and bootstrapping processes. Approaches to each tool for model verification are presented in Supplementary Information S6.
The structure of the rabeprazole population pharmacokinetic model can be explained as two compartments, each with three sequential first-order absorption and Tlag values. As for the basic compartments, significant model improvements (−2LL reduction of p < 0.05 and/or 0.01) were confirmed in two-compartment structures rather than in one, whereas the −2LL increased in three- or more compartment structures alongside the total number of parameters. As a result, the plasma rabeprazole concentration profiles could be explained by its distribution in the central and peripheral compartments with two kinetics in the body. Regarding the delayed absorption pattern of rabeprazole during the absorption phase, several structural absorption compartment models have been attempted, such as the Tlag reflection model, the non-sequential two absorption model (having two or more absorption points with consideration of bioavailability), and the sequential absorption model (via the application of two or more absorption rate constant parameters between successive absorption compartments). In addition, mathematical transformation models, such as Weibull absorption, saturation, zero-order, and mean transit time (MTT) have also been attempted. […]

gastric pH = experiment: Pharmacodynamic model (sigmoid Emax with baseline) of gastric pH versus rabeprazole plasma concentration; type: in vivo, human; details: sigmoid Emax model with baseline fitted to digitized gastric pH vs plasma concentration data
From the text: The pharmacodynamic model was established based on rabeprazole plasma concentration-measured drug efficacy information (quantified using Web-plot-digitizer (version 4.6)), according to the rabeprazole exposure. The efficacy of rabeprazole was indicated by changes in gastric pH, which was related to plasma rabeprazole selectively inhibiting H^+/K^+-ATPase in gastric parietal cells, thereby increasing intragastric pH. Pharmacodynamic predictions for rabeprazole were achieved by structuring the effect compartment related to the rabeprazole pharmacokinetic profile in the central compartment. Simply, the change in the plasma pharmacokinetic profile over time after administering rabeprazole is directly related to the change in drug efficacy. Therefore, it could be expanded and implemented as a pharmacodynamic model, whereby the time–drug effect after exposure to rabeprazole can be quantified. The established and validated population pharmacokinetic model structure and parameter values associated with rabeprazole were fixed as representative values of the population before being expanded into a model to predict the pharmacodynamics of rabeprazole. This was conducted to explore the effect of any differences in the absorption rate of rabeprazole between genders.

[2] = final population PK model, Estimate
[3] = population PK model estimate as quoted in text

Compound: COCCCOc1ccnc(C[S+]([O-])c2nc3ccccc3[nH]2)c1C (centres unmarked) [rabeprazole, Rabeprazole]
- AUC (clinical; both, 10 mg): 0.432 ± 0.166 µg·h/mL
- AUC(0-inf) (clinical; both, 10 mg): 0.456 ± 0.174 µg·h/mL
- AUCextrap (clinical; both, 10 mg): 5.07 ± 9.42%
- Cmax (clinical; both, 10 mg): 0.23657 ± 0.09786 µg/mL
- MRT (clinical; both, 10 mg): 4.79 ± 1.7 h
- Tmax (clinical; both, 10 mg): 3.71 ± 1.22 h
- Vd/F (clinical; both, 10 mg): 53.9 ± 27.3 L
- half-life (clinical; both, 10 mg): 1.55 ± 0.54 h
- Tmax (clinical; female): 4.1 ± 1.15 h
- AUC (clinical; female, 10 mg): 0.424 ± 0.176 µg·h/mL
- AUC(0-inf) (clinical; female, 10 mg): 0.453 ± 0.181 µg·h/mL
- AUCextrap (clinical; female, 10 mg): 4.38 ± 7.82%
- Cmax (clinical; female, 10 mg): 0.26 ± 0.113 µg/mL
- MRT (clinical; female, 10 mg): 5.25 ± 1.97 h
- Vd/F (clinical; female, 10 mg): 54.3 ± 38.1 L
- half-life (clinical; female, 10 mg): 1.48 ± 0.64 h
- AUC (clinical; male, 10 mg): 0.439 ± 0.161 µg·h/mL
- AUC(0-inf) (clinical; male, 10 mg): 0.459 ± 0.172 µg·h/mL
- AUCextrap (clinical; male, 10 mg): 3.84 ± 4.01%
- Cmax (clinical; male, 10 mg): 0.216 ± 0.0796 µg/mL
- MRT (clinical; male, 10 mg): 4.4 ± 1.36 h
- Tmax (clinical; male, 10 mg): 3.38 ± 1.21 h
- Vd/F (clinical; male, 10 mg): 53.5 ± 12.8 L
- half-life (clinical; male, 10 mg): 1.6 ± 0.44 h
- AUCinf (plasma concentrations normalized by body weight) (clinical; single oral 10 mg enteric-coated tablet, NCA, body weight normalized, Total (n = 45), mean ± SD): 7.17 ± 3.34 ng·h/mL/kg
- dKa3dBSA (quantitative correlation value between Ka3 and body surface area) ([1]; Bootstrap (n = 1000) Median): −0.95
- dTlagdGender (quantitative correlation value between Tlag and gender) ([1]; Bootstrap (n = 1000) Median): 0.67
- tvCLp/F (typical value, peripheral compartment clearance) ([1]; Bootstrap (n = 1000) Median): 5.38 L/h
- tvKa1 (first sequential absorption rate constant) ([1]; Bootstrap (n = 1000) Median): 1.89 h⁻¹
- tvKa2 (second sequential absorption rate constant) ([1]; Bootstrap (n = 1000) Median): 2.03 h⁻¹
- tvKa3 (third sequential absorption rate constant) ([1]; Bootstrap (n = 1000) Median): 3.26 h⁻¹
- tvTlag (typical value, lag time) ([1]; Bootstrap (n = 1000) Median): 1.55 h
- tvVc/F (typical value, central compartment distribution volume) ([1]; Bootstrap (n = 1000) Median): 10.06 L
- tvVp/F (typical value, peripheral compartment distribution volume) ([1]; Bootstrap (n = 1000) Median): 11.30 L
- ε (residual error) ([1]; Bootstrap (n = 1000) Median): 0.35
- ω^2CLc/F (inter-individual variability) ([1]; Bootstrap (n = 1000) Median): 0.14
- ω^2Ka1 (inter-individual variability) ([1]; Bootstrap (n = 1000) Median): 0.00
- ω^2Ka2 (inter-individual variability) ([1]; Bootstrap (n = 1000) Median): 0.00
- ω^2Ka3 (inter-individual variability) ([1]; Bootstrap (n = 1000) Median): 1.82
- ω^2Tlag (inter-individual variability) ([1]; Bootstrap (n = 1000) Median): 0.23
- ω^2Vc/F (inter-individual variability) ([1]; Bootstrap (n = 1000) Median): 1.55
- CL/F ([1]; Bootstrap (n = 1000) Median): 424 mL/min
- CL/F [1, 2]: 428 mL/min
- dKa3dBSA (quantitative correlation value between Ka3 and body surface area) [1, 2]: −1.11
- tvCLp/F (typical value, peripheral compartment clearance) [1, 2]: 5.45 L/h
- tvKa1 (first sequential absorption rate constant, dosing depot–depot 1) [1, 2]: 1.91 h⁻¹
- tvKa2 (second sequential absorption rate constant, depot 1–depot 2) [1, 2]: 2.43 h⁻¹
- tvKa3 (third sequential absorption rate constant, depot 2–central compartment) [1, 2]: 3.34 h⁻¹
- tvTlag (typical value, lag time) [1, 2]: 1.56 h
- tvVc/F (typical value, central compartment distribution volume) [1, 2]: 10.31 L
- tvVp/F (typical value, peripheral compartment distribution volume) [1, 2]: 11.46 L
- ω^2CLc/F (inter-individual variability) [1, 2]: 0.14
- ω^2Ka1 (inter-individual variability) [1, 2]: 0.00
- ω^2Ka2 (inter-individual variability) [1, 2]: 0.00
- ω^2Ka3 (inter-individual variability) [1, 2]: 1.74
- ω^2Tlag (inter-individual variability) [1, 2]: 0.23
- ω^2Vc/F (inter-individual variability) [1, 2]: 2.04
- dTlagdGender (quantitative correlation value between Tlag and gender) ([1]; final population PK model, Estimate, female = 1, male = 0): 0.73
- ε (residual error) ([1]; final population PK model, Estimate, log-additive error model): 0.37
- Vc/F estimate [1, 3]: 10.3 L
- Vp/F estimate [1, 3]: 11.5 L
- EC50 (gastric pH; Homo sapiens, read-out: EC50 (plasma rabeprazole concentration required to achieve 50% of the Emax)): 0.0516 mg/L (≈ 0.143 µM)
- E0 (basal pH effect in the stomach that occurs without rabeprazole) (gastric pH): 2.50
- Emax (maximal effect of increasing gastric pH by plasma rabeprazole level) (gastric pH): 4.72
- γ (sigmoidicity factor) (gastric pH): 5.04
